Our source for the IC50 values is patent publication US12319655B2, “RAF kinase inhibitors and methods of use thereof” (Deciphera Pharmaceuticals, LLC, priority 2021, dated 2025).

In assay [1] the target is B-Raf kinase (SEQ. ID NO: 2) (Homo sapiens (Human), UniProt P15056). Nature of the assay: Biochemical Assay for B-Raf (2). The settings on record: Table J, biochemical assay (2); read-out: BRAF (2). The protocol: Biochemical Assay for B-Raf (2)
Activity of B-Raf kinase (SEQ. ID NO: 2) was determined spectroscopically using a coupled pyruvate kinase/lactate dehydrogenase assay that continuously monitors the ATP hydrolysis-dependent oxidation of NADH (e.g., Schindler et al., Science, 2000, 289, 1938-1942). Assays were conducted in 384-well plates (25 μL final volume) using 2 nM B-Raf (Sigma), 1.5 units pyruvate kinase, 2.1 units lactate dehydrogenase, 1 mM phosphoenol pyruvate, 0.7 mM NADH, 50 nM MEK (SignalChem), and 1 mM ATP in assay buffer (100 mM Tris, pH 7.5, 15 mM MgCl2, 0.5 mM DTT, 0.1% octyl-glucoside, 0.002% (w/v) BSA, and 0.002% Triton X-100). Inhibition of B-Raf was measured by adding serial diluted test compound (final assay concentration of 1% DMSO). A decrease in absorption at 340 nm was monitored hourly for 4 h at 30° C. on a multi-mode microplate reader (BioTek). The reaction rate was calculated using the 2 to 3 h time frame. The reaction rate at each concentration of compound was converted to percent inhibition using controls (i.e., reaction with no test compound and reaction with a known inhibitor) and IC50 values were calculated by fitting a four-parameter sigmoidal curve to the data using Prism (GraphPad software).

A further assay relates to A375 cells. Nature of the assay: A375 Cell Proliferation Assay (2). The format is cell-based. As to conditions: Homo sapiens, A-375. As for the experimental part:
A375 Cell Proliferation Assay (2)
A375 cells (catalog (#CRL-1619) are obtained from the American Type Culture Collect (ATTC, Manassas, VA). Briefly, cells were grown in DMEM High Glucose supplemented with 10% characterized fetal bovine serum (Invitrogen, Carlsbad, CA) and 1% Penicillin/Streptomycin/L-Glutamine at 37° C., 5% CO2, and 95% humidity. Cells are expanded until reaching 70-95% confluency at which point they are sub-cultured or harvested for assay use. Using the Beckman Coulter Echo 650, a serial dilution of test compound is dispensed into a 384-well black clear bottom plate in triplicate. Six hundred twenty-five cells are added per well in 50 μL complete growth medium in the 384-well plate. Plates are incubated for 67-72 h at 37° C., 5% CO2, and 95% humidity. At the end of the incubation, 10 μL of a 440 μM solution of resazurin (Sigma, St. Louis, MO) in PBS is added to each well of the plate and plates are incubated for an additional 3-6 h at 37° C., 5% CO2, and 95% humidity. Plates are read on a Synergy2 or equivalent reader (Biotek, Winooski VT) using an excitation of 540 nm and an emission of 600 nm. Data is analyzed using Prism software (GraphPad, San Diego, CA) to calculate IC50 values.

Another assay has as its system WM3928 cells. Nature of the assay: WM3928 Cell Proliferation Assay (2). The format is cell-based. As for the experimental part: WM3928 Cell Proliferation Assay (2)
WM3928 cells (#WM3928-01-0001) are obtained from Rockland Immunochemicals Inc (Gilbertsville, PA). Briefly, cells were grown in MCDB 153 medium (Sigma, #M7403, St. Louis, MO) supplemented with 20% Leibovitz's L-15 (ThermoFisher #11415-064, Waltham, MA), 2% heat inactivated fetal bovine serum (ThermoFisher, #A3840001, Waltham, MA), 5 μg/mL Insulin (Bovine Pancreas) (Sigma, #10516, St. Louis, MO), 1.68 mM Calcium Chloride (Sigma, #C-34006, St. Louis, MO) and 1% Penicillin/Streptomycin/L-Glutamine (ThermoFisher #10378016, Waltham, MA) at 37° C., 5% CO2, and 95% humidity. Cells are expanded until reaching 70-95% confluency at which point they are sub-cultured or harvested for assay use. Using the Beckman Coulter Echo 650, a serial dilution of test compound is dispensed into a 384-well black clear bottom plate in triplicate. Seven hundred fifty cells are added per well in 50 μL complete growth medium in the 384-well plate. Plates are incubated for 67-72 hours at 37° C., 5% CO2, and 95% humidity. At the end of the incubation, 10 μL of a 440 μM solution of resazurin (Sigma, #199303, St. Louis, MO) in PBS is added to each well of the plate and plates are incubated for an additional 3-6 hours at 37° C., 5% CO2, and 95% humidity. Plates are read on a Synergy2 or equivalent reader (Biotek, Winooski VT) using an excitation of 540 nm and an emission of 600 nm. Data is analyzed using Prism software (GraphPad, San Diego, CA) to calculate IC50 values.

Assay [2] concerns the target B-Raf (V600E) (SEQ. ID NO: 4) kinase (Homo sapiens (Human), UniProt P15056, V600E). Nature of the assay: Biochemical Assay for B-Raf (V600E) (2). As to conditions: Table J, BRAF V600E, biochemical assay (2); read-out: BRAF VE (2). The protocol:
Biochemical Assay for B-Raf (V600E) (2)
Activity of B-Raf (V600E) (SEQ. ID NO: 4) kinase was determined spectroscopically using a coupled pyruvate kinase/lactate dehydrogenase assay that continuously monitors the ATP hydrolysis-dependent oxidation of NADH (e.g., Schindler et al., Science, 2000, 289, 1938-1942). Assays were conducted in 384-well plates (25 μL final volume) using 0.5 nM B-Raf (deCode), 1.5 units pyruvate kinase, 2.1 units lactate dehydrogenase, 1 mM phosphoenol pyruvate, 0.7 mM NADH, 100 nM MEK (SignalChem), and 1 mM ATP in assay buffer (100 mM Tris, pH 7.5, 15 mM MgCl2, 0.5 mM DTT, 0.1% octyl-glucoside, 0.002% (w/v) BSA, and 0.002% Triton X-100). Inhibition of B-Raf (V600E) was measured by adding serial diluted test compound (final assay concentration of 1% DMSO). A decrease in absorption at 340 nm was monitored hourly for 4 h at 30° C. on a multi-mode microplate reader (BioTek). The reaction rate was calculated using the 3 to 4 h time frame. The reaction rate at each concentration of compound was converted to percent inhibition using controls (i.e., reaction with no test compound and reaction with a known inhibitor) and IC50 values were calculated by fitting a four-parameter sigmoidal curve to the data using Prism (GraphPad software).

B-Raf (V600E) (SEQ. ID NO: 4) kinase, sequence (P15056 416-766 V600E): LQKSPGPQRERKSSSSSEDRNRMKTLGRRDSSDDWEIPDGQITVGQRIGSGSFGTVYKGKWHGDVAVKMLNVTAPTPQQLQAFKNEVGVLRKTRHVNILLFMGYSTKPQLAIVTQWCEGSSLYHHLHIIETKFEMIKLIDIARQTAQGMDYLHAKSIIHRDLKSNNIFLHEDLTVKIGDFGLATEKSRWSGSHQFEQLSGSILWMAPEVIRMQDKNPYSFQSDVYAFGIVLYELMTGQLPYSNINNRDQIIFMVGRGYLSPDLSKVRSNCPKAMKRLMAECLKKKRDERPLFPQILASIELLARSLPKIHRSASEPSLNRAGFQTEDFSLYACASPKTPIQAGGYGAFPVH
B-Raf kinase (SEQ. ID NO: 2), sequence (P15056 416-766): as the sequence (P15056 416-766 V600E) above, with E185V counted along it

Take `CNC(=O)c1cc(-c2cc(-c3cc(NC(=O)c4ccnc(C5CC5)c4)cnc3C)ccn2)ccn1` [Example 462]: the IC50 in assay [1] is 0.1 to 0.5 µM; in the assay with A375 cells, 1 to 10 µM; with WM3928 cells it was 0.5 to 1 µM; in assay [2], 0.1 to 0.5 µM.

`Cc1ccc(NC(=O)c2ccnc(C(C)(C)F)c2)cc1-c1ccnc(-c2ccnc(C(=O)NC3CN(C)C3)c2)c1` [Example 450]: the IC50 in assay [1] was 0.1 to 0.5 µM; in the assay on A375 cells it was 0.1 to 0.5 µM; with WM3928 cells it was 0.1 to 0.5 µM; in assay [2], not above 0.1 µM.

For `CNC(=O)c1cc(-c2cncc(-c3cc(NC(=O)c4ccnc(C(C)(F)F)c4)ccc3C)c2)ncn1` [Example 439], the IC50 in assay [1] is not above 0.1 µM; with A375 cells it was 0.1 to 0.5 µM; in the assay on WM3928 cells, 0.1 to 0.5 µM; in assay [2], not above 0.1 µM.

As to `CNC(=O)c1cc(-c2cc(-c3cc(NC(=O)c4ccnc(C(C)C)c4)ccc3C)ccn2)ccn1` [Example 443], the IC50 in assay [1] was not above 0.1 µM; in the assay with A375 cells it was 0.1 to 0.5 µM; with WM3928 cells, not above 0.1 µM; in assay [2], not above 0.1 µM.

With `CNC(=O)c1cc(-c2cc(-c3cc(NC(=O)c4ccnc(C(C)(C)F)c4)c(F)cc3F)ccn2)ccn1` [Example 482], the IC50 in assay [1] is 0.1 to 0.5 µM; in the assay on A375 cells it was 0.1 to 0.5 µM; with WM3928 cells, 0.1 to 0.5 µM; in assay [2], not above 0.1 µM.

`CNC(=O)c1cc(-c2cc(-c3cc(NC(=O)c4ccnc(C(C)(C)F)c4)ccc3C)c(C)cn2)ccn1` [Example 472]: the IC50 in assay [1] is 0.5 to 1 µM; in the assay with A375 cells, 0.1 to 0.5 µM; with WM3928 cells, 0.5 to 1 µM; in assay [2], not above 0.1 µM.

With `CNC(=O)c1cc(-c2cc(-c3cc(NC(=O)c4ccnc(C(C)(C)F)c4)cc(F)c3C)ccn2)ccn1` [Example 480], the IC50 in assay [1] was 0.1 to 0.5 µM; in the assay with A375 cells, 0.1 to 0.5 µM; with WM3928 cells, not above 0.1 µM; in assay [2], not above 0.1 µM.

Regarding `Cc1ncc(NC(=O)c2ccnc(C(C)(C)F)c2)cc1-c1ccnc(-c2ccnc(NC(=O)C3CC3)c2)c1` [Example 454], the IC50 (in assay [1]; with A375 cells; with WM3928 cells; in assay [2]) was not above 0.1 µM in each case.

Regarding `Cc1ccc(NC(=O)c2ccnc(C(C)(C)F)c2)cc1-c1ccnc(-c2ccnc(NC(=O)C3CC3)c2)c1` [Example 455], the IC50 (in assay [1]; in the assay with A375 cells; with WM3928 cells; in assay [2]) was not above 0.1 µM in each case.

For `CNC(=N)c1cc(-c2cc(-c3cc(NC(=O)c4ccnc(C(C)(C)F)c4)ccc3C)ccn2)ccn1` [Example 452], the IC50 was not above 0.1 µM in assay [1], 0.1 to 0.5 µM in the assay with A375 cells, 0.1 to 0.5 µM in the assay with WM3928 cells and not above 0.1 µM in assay [2].

For `CNC(=O)c1cc(-c2cc(-c3cc(NC(=O)c4ccnc(C(C)(C)F)c4)ccc3C(F)(F)F)ccn2)ccn1` [Example 471], the IC50 (in assay [1]; in the assay on A375 cells; in the assay with WM3928 cells; in assay [2]) was 1 to 10 µM in each case.

Regarding `CNC(=O)c1cc(-c2cncc(-c3cc(NC(=O)c4ccnc(C(C)C)c4)ccc3C)c2)ncn1` [Example 446], the IC50 in assay [1] was not above 0.1 µM; in the assay on A375 cells, 0.1 to 0.5 µM; in the assay on WM3928 cells, not above 0.1 µM; in assay [2] it was not above 0.1 µM.

For `CNC(=O)c1cc(-c2cc(-c3cc(NC(=O)c4ccnc(C(C)(C)F)c4)cnc3C)ccn2)ccn1` [Example 444], the IC50 in assay [1] was 0.1 to 0.5 µM; in the assay with A375 cells, 0.1 to 0.5 µM; in the assay with WM3928 cells it was 0.1 to 0.5 µM; in assay [2], not above 0.1 µM.

Take `CNC(=O)c1cc(-c2cc(-c3cc(NC(=O)c4cnnc(C(F)(F)F)c4)ccc3C)ccn2)ccn1` [Example 477]: the IC50 in assay [1] is not above 0.1 µM; with A375 cells, 1 to 10 µM; in the assay on WM3928 cells, 0.5 to 1 µM; in assay [2] it was 0.1 to 0.5 µM.

Turning to `CNC(=O)c1cc(-c2cncc(-c3cc(NC(=O)c4ccnc(C(C)(C)C#N)c4)ccc3C)c2)ccn1` [Example 442], the IC50 (in assay [1]; with A375 cells; in the assay with WM3928 cells; in assay [2]) was not above 0.1 µM in each case.
